Measured values published in paper PMC7915026, “Sulfaguanidine Hybrid with Some New Pyridine-2-One Derivatives: Design, Synthesis, and Antimicrobial Activity against Multidrug-Resistant Bacteria as Dual DNA Gyrase and DHFR Inhibitors” (Antibiotics, 2021).
Values after ≈ are worked out from the molar mass of the structure shown. Like-named read-outs stand apart in the source and are kept apart here.

Assays:
[1] = test system: F. oxysporum (RCMB 008002); experiment: MIC and MFC determination; assay type: cell-based
[2] = test system: spleen and thymus; experiment: In vivo immunomodulation: immune organ weight and indexes; parameters: Spleen index: unit not given here; conditions: mice
Text: Both the spleen and thymus have important antibacterial and fungal immune organ responses, and any change in weight, and indexes can reflect the level of immune regulation. Additionally, the relative spleen and thymus indexes are important indices for nonspecific immunity and potential immunomodulatory compounds that increase the spleen and thymus weight. This increase is due to immune cells’ stimulation in the spleen and thymus. […]

COc1ccc(/C=C(\C#N)C(=O)Nc2ccc(S(=O)(=O)NC(=N)N)cc2)cc1O [Compound 2d, N-(4-(N-Carbamimidoylsulfamoyl)phenyl)-2-cyano-3-(3-hydroxy-4-methoxyphenyl) acryl-amide]
MFC [1]: 66.84 ± 0.85 µM (≈ 27.8 µg/mL) | MFC/MIC [1]: <2 | MIC [1]: 37.60 ± 0.25 µM (≈ 15.6 µg/mL) | MFC ([1]; Fusarium oxysporum, RCMB008002, read-out: MFC): 66.8 µM (≈ 27.8 µg/mL) | MIC ([1]; Fusarium oxysporum, RCMB008002, read-out: MIC): 37.6 µM (≈ 15.6 µg/mL) | Spleen index [2]: 0.018 ± 0.00 | Spleen weight [2]: 250 ± 0.03 mg | Thymus index [2]: 0.532 ± 0.06 mg/g | Thymus weight [2]: 15.56 ± 0.54 mg
